Common to all, as to format: cell-based
The test system of test [1] is Aspergillus flavus. The test can be described thus: Agar plate disc-diffusion, inhibition zone. On the procedure:
(§1) The agar plate disc-diffusion method was applied. […] The discs were then placed onto the surface of agar plates (nutrient agar for bacteria and Sabouraud's dextrose agar for fungi) seeded with the test organism. Each plate contained 15 mL of the agar medium, previously seeded with 0.2 mL of the broth culture of each organism pregrown for 18 hours. The plates were incubated at 37° C. for 48 h, and 72 h for fungi. The inhibition zones were measured in mm. Discs impregnated with DMSO were used as a control, and its inhibition zone was subtracted from the tested compound actual inhibition zone.

The test system of test [2] is Bacillus cereus. The test can be described thus: Agar plate disc-diffusion, inhibition zone. On the procedure: as §1
Test [3] has as its system Chrysosporium keratinophilum. In words: Agar plate disc-diffusion, inhibition zone. On the procedure: as §1
(Agar diffusion results depend on both activity and mobility in agar.)

Test [4] concerns Escherichia coli. The test can be described thus: Agar plate disc-diffusion, inhibition zone. On the procedure: as §1
The subject of test [5] is Pseudomonas aeruginosa. In words: Agar plate disc-diffusion, inhibition zone. Here is the method: as §1
Test [6] concerns Staphylococcus aureus. The test can be described thus: Agar plate disc-diffusion, inhibition zone. On the procedure:
as §1

Test [7] deals with human osteosarcoma cells (MG-63). The test can be described thus: Cytotoxicity by SRB assay. Particulars: MG-63 cells, 0.01 μM to 100 μM for 72 h. The source says: (§2) The anticancer activity of the described synthesized compounds against highly aggressive androgen-independent metastatic human prostate cancer cells (PC3) and osteosarcoma (MG-63) cells. The human prostate cancer cells (PC3) and human osteosarcoma cells (MG-63) were obtained from Nawah Scientific Inc. (Mokatam, Cairo, Egypt) and cultured in DMEM (Dulbecco's modified eagle's medium), Gibco, USA, supplemented with fetal bovine serum (FBS) at a concentration of 10% and 100 U/mL of penicillin and streptomycin (PS). The Cells were incubated at 37° C. in a humidified environment that contained 5% CO2.
(§3) Cells were seeded in 96-well plates as aliquots of 100 μL cell suspension and incubated in a complete media for 24 h. afterward, cells were treated with 5-((2-isopropyl-5-methylphenoxy)methyl)-3-(naphthalen-1-yl)-1,2,4-oxadiazole at diverse concentrations ranging from 0.01 μM to 100 μM for 72 h. Then, cells were fixed at 4° C. for one hour with 150 μL of 10% trichloroacetic acid (TCA). […] Then, 150 μL of Tris pH 10.5 (10 mM) was added, and the absorbance was measured at 540 nm using a BMG LABTECH®-FLUOstar Omega microplate reader (Ortenberg, Germany). Half maximal inhibitory concentrations (IC50) values were calculated for each experiment using GraphPad Prism 6 software. […]
(§4) The inhibition was calculated using the following equation: Inhibition %=100−Average Viability
Background: In SRB staining, fixed cells bind dye roughly in proportion to their protein.

In test [8] the test system is human prostate cancer cells (PC3). In words: Cytotoxicity by SRB assay. Particulars: 0.01 μM to 100 μM for 72 h.
Description: as §2, §3, §4

Test [9] has as its system different microbes. The test can be described thus: Antimicrobial activity, agar plate disc-diffusion (overall statement). To be noted: against different microbes (bacteria and fungi). On the procedure: The agar plate disc-diffusion method was applied. Sterilized filter papers (6 mm in diameter) were wetted with 10 μL of a solution of 5-((2-isopropyl-5-methylphenoxy)methyl)-3-(naphthalen-1-yl)-1,2,4-oxadiazole (3) to be tested, containing 10 mg/mL in DMSO, and the discs were allowed to air dry. The discs were then placed onto the surface of agar plates (nutrient agar for bacteria and Sabouraud's dextrose agar for fungi) seeded with the test organism. Each plate contained 15 mL of the agar medium, previously seeded with 0.2 mL of the broth culture of each organism pregrown for 18 hours. The plates were incubated at 37° C. for 48 h, and 72 h for fungi. The inhibition zones were measured in mm. Discs impregnated with DMSO were used as a control, and its inhibition zone was subtracted from the tested compound actual inhibition zone.

[10] abbreviates: A = concentration of comp. = 10,000 μL.
[11] abbreviates: B = concentration of comp. = 30,000 μL.
The mark [12] stands for this setting: C = concentration of comp. = 50,000 μL.

Molecules are shown by their SMILES.

With `Cc1ccc(C(C)C)c(OCc2nc(-c3cccc4ccccc34)no2)c1` [Compound 3, 5-((2-isopropyl-5-methylphenoxy)methyl)-3-(naphthalen-1-yl)-1,2,4-oxadiazole], the inhibition zone in [1] (setting [10]) is 18 mm; in test [1] (setting [11]) it was 22 mm; in test [1] (setting [12]), 30 mm; in [2] (setting [10]) it was 28 mm; in [2] (setting [11]) it was 30 mm; in test [2] (setting [12]), 39 mm. In addition, the inhibition zone is 27 mm in test [3] (setting [10]); 29 mm in test [3] (setting [11]); 46 mm in [3] (setting [12]); 29 mm in [4] (setting [10]); 32 mm in [4] (setting [11]); 51 mm in [4] (setting [12]). Further, the inhibition zone is listed as 24 mm in [5] (setting [10]); 28 mm in test [5] (setting [11]); 37 mm in test [5] (setting [12]); 14 mm in test [6] (setting [10]); 21 mm in test [6] (setting [11]); 24 mm in test [6] (setting [12]). The antiproliferative activity result in test [7] and in test [8] was “excellent antiproliferative activities” in each case. Further, in test [9], the antimicrobial activity result is recorded as “excellent antimicrobial activities”.
Turning to `O=C(O)c1cn(C2CC2)c2cc(N3CCNCC3)c(F)cc2c1=O` [Cip., ciprofloxacin, reference compound], the inhibition zone in test [1] (setting [10]) turned out to be 29 mm; in test [1] (setting [11]) it was 30 mm; in test [1] (setting [12]) it was 42 mm; in test [2] (setting [10]), 29 mm; in test [2] (setting [11]), 30 mm; in test [2] (setting [12]) it was 42 mm. Further, the inhibition zone was found to be 29 mm in test [3] (setting [10]); 30 mm in test [3] (setting [11]); 53 mm in test [3] (setting [12]); 30 mm in test [4] (setting [10]); 39 mm in test [4] (setting [11]); 60 mm in test [4] (setting [12]). Moreover, the inhibition zone in [5] (setting [10]) came to 29 mm; in test [5] (setting [11]) it was 30 mm; in [5] (setting [12]) it was 53 mm; in [6] (setting [10]) it was 43 mm; in test [6] (setting [11]), 44 mm; in test [6] (setting [12]) it was 53 mm.

These data come from patent US12180173B1, “5-((2-isopropyl-5-methylphenoxy)methyl)-3-(naphthalen-1-yl)-1,2,4-oxadiazole as an anti-cancer and antimicrobial compound” (KING FAISAL UNIVERSITY, priority 2023, dated 2024).
